Entries after “also recorded” stand apart in the source; their conditions may differ.
Columns and labels:
CBP [1] = target: T1, CBP (Mus musculus, UniProt P45481); experiment: Immunohistochemistry (IHC) staining of liver from MTD study, CBP; format: in vivo; conditions: normal mice, 40 mpk, 14-day treatment
T1 construct: from tissue; host or cells: mouse liver (CD1 mice)
Text: (§1) Immunohistochemistry (IHC) staining was used to examine a liver from MTD study. […] No changes in CBP and H3K27Ac levels were observed.

MM.1S cells = experiment: 4-day growth inhibition assay (ATPlite / cell counting kit), MM.1S cells; format: cell-based; conditions: 0-10 μM
Method: (§2) An aliquot of the ATP standard solution (ATPlite™ 1000 assay kit, PerkinElmer®, USA) was used to prepare a dilution series in water. A series of 100 μL of complete culture medium was pipetted without cells into the wells of the plate. To each well was added 50 μL of the mammalian cell lysis solution, and the plate was shaken for 5 minutes in an orbital shaker at 700 rpm. 10 μL of the ATP dilution series was added to the wells, and the plate was shaken for 5 minutes in an orbital shaker at 700 rpm. 50 μL of the substrate solution was added and the plate was shaken for 5 minutes in an orbital shaker at 700 rpm. The plate dark adapted the plate for 10 minutes prior to measuring the luminescence and then preparing a standard curve.

cereblon (CRBN) = cereblon (CRBN) (Homo sapiens, UniProt Q96SW2); experiment: AlphaScreen assay, cereblon (CRBN); format: binding
cereblon (CRBN), sequence (Q96SW2 whole entry): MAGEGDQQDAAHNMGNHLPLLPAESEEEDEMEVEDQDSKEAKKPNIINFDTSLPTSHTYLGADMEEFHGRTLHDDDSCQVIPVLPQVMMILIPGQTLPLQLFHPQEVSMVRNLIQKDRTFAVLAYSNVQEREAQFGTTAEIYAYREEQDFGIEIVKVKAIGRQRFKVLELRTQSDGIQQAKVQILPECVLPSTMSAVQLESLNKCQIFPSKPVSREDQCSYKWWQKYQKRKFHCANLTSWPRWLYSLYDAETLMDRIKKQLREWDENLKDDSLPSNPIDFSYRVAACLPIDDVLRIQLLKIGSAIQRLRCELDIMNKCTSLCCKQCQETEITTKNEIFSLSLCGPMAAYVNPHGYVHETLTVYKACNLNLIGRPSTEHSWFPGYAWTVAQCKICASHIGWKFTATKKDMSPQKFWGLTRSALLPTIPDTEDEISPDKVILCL
Text: An AlphaLISA® assay for EP300 catalytic function (FIG. 3B) and an AlphaScreen™ assay for EP300 bromodomain and cereblon (CRBN) using biotinylated tagged small molecules as a probe for EP300 bromodomain and CRBN, respectively, were developed (FIG. 3C).
AlphaScreen™ assay was used to determine the binding of inventive degrader compound toward both CRBN and HAT domain.

CBP [2] = target: T2, CBP (Homo sapiens, UniProt Q92793); experiment: Proteomics analysis in Kelly NB cells, CBP; format: cell-based; conditions: 500 nM, 6 hours and 36 hours
T2 construct: endogenous in cells; host or cells: Kelly neuroblastoma cells (incl. Ch2.2, LACZ and CRBN knockout lines)
Method: FIG. 9C is a plot of the proteomics analysis results after treating Kelly NB cells with CPD 1 (500 nM) at 6 hours and 36 hours.

H3K27Ac = experiment: Immunohistochemistry (IHC) staining of liver from MTD study, H3K27Ac; format: in vivo; conditions: normal mice, 40 mpk, 14-day treatment
Text: as §1

[3] = In vivo study blood analysis; conditions: mice, after 14 days
Text: Blood samples were taken from mice treated daily with 40 mpk intraperitoneal injection (IP) after 14 days.

NB zebra fish model = experiment: NB zebra fish model; format: in vivo
Method: (§3) Maximum tolerance dose (MTD) of each candidate was determined in zebrafish embryos. 3-day-old zebrafish embryos were exposed to different drug concentrations and monitored for adverse health effects. […] Experiments were first carried out with compound CPD 1 as a guide in the further design of MTD assessment of lead EP300 degraders (FIG. 6B). The MTD of the degrader is also determined in mice in the similar manor. Briefly, mice were dosed with test compounds and blood and plasma is isolated at specific intervals post-administration (0.083, 0.25, 0.5, 1, 2, 4, 8, 12, and 24 h) and quantified for the presence of test article by LC/MS/MS (n=5 mice/compound). In vivo mouse PK experiments were used to determine these parameters and inform iterative rounds of medicinal chemistry for optimization of EP300 degraders (FIG. 6A). As degraders have a relatively large molecular weight, the proper formulation is investigated to increase the solubility and stability of the degraders for in vivo study. Together, these parameters, including the established MTD, are used to guide the in vivo study design, such as administration method, dosing, and schedule for the following experiment. The information obtained was also used to guide the degrader optimization conducted in Example 36.

U266 cells = experiment: 4-day growth inhibition assay (ATPlite / cell counting kit), U266 cells; format: cell-based; conditions: 0-10 μM
Method: as §2

Kelly cells [4] = experiment: Colony formation assay, Kelly cells; format: cell-based; conditions: 10 days
Text: The experimental method for the colony formation assay is as described in Durbin et al., Nat Genet. 50(9):1240-60 (2018).

Kelly cells [5] = experiment: ATPlite cell growth inhibition assay, Kelly cell lines treated 72 hours; format: cell-based
Method: Compounds CPD 1 to CPD 22 were tested via ATPlite™ assay (ATPlite™ 1000 assay kit, PerkinElmer®, USA) using standard protocol. […] The signal is normalized to DMSO treated cells.

[6] = Mouse PK after intraperitoneal injection, blood concentration by LCMS/MS; format: in vivo; conditions: IP 10 mg/kg, male CD1 mice
Method: The compound concentration in animal blood was measured by LCMS/MS through a series bleeding at different time points. […] A-485 half life is 0.7 h in mice.
as §3

T1 sequence (P45481 whole entry): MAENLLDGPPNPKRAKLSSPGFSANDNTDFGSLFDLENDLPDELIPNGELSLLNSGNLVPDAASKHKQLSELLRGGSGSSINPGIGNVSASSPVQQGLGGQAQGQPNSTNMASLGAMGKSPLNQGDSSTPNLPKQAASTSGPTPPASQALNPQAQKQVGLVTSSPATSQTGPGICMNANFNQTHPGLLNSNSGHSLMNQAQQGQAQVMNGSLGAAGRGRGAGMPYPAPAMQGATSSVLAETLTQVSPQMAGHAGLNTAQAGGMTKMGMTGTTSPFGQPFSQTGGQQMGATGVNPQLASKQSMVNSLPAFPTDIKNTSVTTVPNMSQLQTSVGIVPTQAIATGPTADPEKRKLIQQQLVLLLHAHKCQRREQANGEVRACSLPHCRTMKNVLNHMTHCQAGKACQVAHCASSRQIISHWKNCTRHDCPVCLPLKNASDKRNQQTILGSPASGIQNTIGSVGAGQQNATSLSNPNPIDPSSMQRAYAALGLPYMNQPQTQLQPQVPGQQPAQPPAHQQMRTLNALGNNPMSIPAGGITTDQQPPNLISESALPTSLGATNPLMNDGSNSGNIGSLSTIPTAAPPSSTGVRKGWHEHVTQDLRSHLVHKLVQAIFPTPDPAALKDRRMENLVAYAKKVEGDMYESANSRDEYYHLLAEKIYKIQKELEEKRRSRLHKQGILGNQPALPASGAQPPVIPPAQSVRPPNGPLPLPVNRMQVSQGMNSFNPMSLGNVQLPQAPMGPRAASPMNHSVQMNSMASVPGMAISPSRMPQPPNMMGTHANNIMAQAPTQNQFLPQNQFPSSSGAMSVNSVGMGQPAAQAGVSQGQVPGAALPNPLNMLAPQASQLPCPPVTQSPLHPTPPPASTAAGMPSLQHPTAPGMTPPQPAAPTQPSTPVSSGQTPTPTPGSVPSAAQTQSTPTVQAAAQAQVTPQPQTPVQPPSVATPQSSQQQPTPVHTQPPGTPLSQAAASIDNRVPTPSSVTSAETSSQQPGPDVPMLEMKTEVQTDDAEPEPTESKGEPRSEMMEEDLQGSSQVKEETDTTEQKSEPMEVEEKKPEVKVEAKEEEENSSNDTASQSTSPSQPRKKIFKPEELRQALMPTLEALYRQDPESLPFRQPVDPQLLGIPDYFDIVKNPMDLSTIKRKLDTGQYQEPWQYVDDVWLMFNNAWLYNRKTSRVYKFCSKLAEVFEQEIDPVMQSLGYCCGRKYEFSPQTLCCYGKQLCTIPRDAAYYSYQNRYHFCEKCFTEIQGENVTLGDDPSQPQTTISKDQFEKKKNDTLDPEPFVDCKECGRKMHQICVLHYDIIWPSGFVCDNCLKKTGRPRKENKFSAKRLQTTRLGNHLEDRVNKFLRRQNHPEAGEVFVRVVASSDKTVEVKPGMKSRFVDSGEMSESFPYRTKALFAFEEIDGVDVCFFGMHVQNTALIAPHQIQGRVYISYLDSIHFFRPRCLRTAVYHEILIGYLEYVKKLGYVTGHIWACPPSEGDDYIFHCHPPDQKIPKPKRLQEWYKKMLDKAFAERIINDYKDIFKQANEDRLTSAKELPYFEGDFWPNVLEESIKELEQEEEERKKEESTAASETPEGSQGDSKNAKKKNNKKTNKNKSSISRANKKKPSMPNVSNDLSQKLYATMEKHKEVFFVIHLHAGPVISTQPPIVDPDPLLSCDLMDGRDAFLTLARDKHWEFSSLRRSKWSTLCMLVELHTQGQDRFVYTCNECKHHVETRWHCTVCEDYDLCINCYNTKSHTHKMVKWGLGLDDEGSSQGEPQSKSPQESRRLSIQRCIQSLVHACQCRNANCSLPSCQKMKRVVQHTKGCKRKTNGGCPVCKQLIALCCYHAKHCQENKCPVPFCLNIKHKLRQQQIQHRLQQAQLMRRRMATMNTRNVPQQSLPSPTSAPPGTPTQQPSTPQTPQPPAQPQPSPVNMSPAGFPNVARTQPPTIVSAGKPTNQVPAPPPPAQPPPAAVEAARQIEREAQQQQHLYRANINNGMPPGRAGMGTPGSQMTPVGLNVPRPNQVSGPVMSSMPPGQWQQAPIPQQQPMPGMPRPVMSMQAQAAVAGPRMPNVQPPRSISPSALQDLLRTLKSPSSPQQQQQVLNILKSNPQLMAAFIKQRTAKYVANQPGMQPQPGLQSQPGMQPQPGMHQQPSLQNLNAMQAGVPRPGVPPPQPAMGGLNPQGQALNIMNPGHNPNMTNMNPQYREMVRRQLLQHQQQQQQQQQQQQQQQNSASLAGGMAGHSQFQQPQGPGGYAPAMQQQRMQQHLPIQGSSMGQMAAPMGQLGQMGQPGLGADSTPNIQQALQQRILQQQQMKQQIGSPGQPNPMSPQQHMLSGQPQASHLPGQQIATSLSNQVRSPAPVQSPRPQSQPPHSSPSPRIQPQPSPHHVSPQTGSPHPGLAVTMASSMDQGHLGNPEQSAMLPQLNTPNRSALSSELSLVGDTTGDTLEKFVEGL

C[C@H](N(Cc1ccc(F)cc1)C(=O)CN1C(=O)O[C@@]2(CCc3cc(NC(=O)CCCCCCCCCCCNc4ccc5c(c4)C(=O)N(C4CCC(=O)NC4=O)C5=O)ccc32)C1=O)C(F)(F)F (stereo partly drawn) [CPD 1, 12-((2-(2,6-dioxopiperidin-3-yl)-1,3-dioxoisoindolin-5-yl)amino)-N—((R)-3′-(2-((4-fluorobenzyl)((S)-1,1,1-trifluoropropan-2-yl)amino)-2-oxoethyl)-2′,4′-dioxo-2,3-dihydrospiro[indene-1,5′-oxazolidin]-5-yl)dodecanamide]
CBP level in liver tissue (CBP [1]): No changes | growth inhibition compared with A485 (MM.1S cells): outperformed inhibitor A485 | binding to cereblon (CRBN) (cereblon (CRBN)): bound and bind | CBP level (proteomics) (CBP [2]): No changes in the CBP level were observed | H3K27Ac level in liver tissue (H3K27Ac): No changes | ALP ([3]; 40 mg/kg IP daily): 51 U/L | ALT ([3]; 40 mg/kg IP daily): 54 U/L | AST ([3]; 40 mg/kg IP daily): 37 U/L | Albumin ([3]; 40 mg/kg IP daily): 3.2 g/dL | Basophils ([3]; 40 mg/kg IP daily): 0.02 K/μL | Creatinine ([3]; 40 mg/kg IP daily): 0.17 mg/dL | Eosinophils ([3]; 40 mg/kg IP daily): 0.10 K/μL | GGTP ([3]; 40 mg/kg IP daily): 5 | Hematocrit ([3]; 40 mg/kg IP daily): 41.2% | Hemoglobin ([3]; 40 mg/kg IP daily): 13.35 g/dL | Lymphocytes ([3]; 40 mg/kg IP daily): 1.80 K/μL | Monocytes ([3]; 40 mg/kg IP daily): 0.35 K/μL | Neutrophils ([3]; 40 mg/kg IP daily): 1.2 K/μL | Platelet ([3]; 40 mg/kg IP daily): 528 K/μL | WBC ([3]; 40 mg/kg IP daily): 3.46 K/μL | toxicity by blood sample measurements ([3]; 40 mpk IP daily): not toxic | tumor growth inhibition (NB zebra fish model; NB zebra fish model, 0.25 μM and 0.5 μM): tumor growth inhibition | toxicity in zebra fish study (NB zebra fish model; zebra fish): No toxicity was observed | growth inhibition compared with A485 (U266 cells): outperformed inhibitor A485 | Kelly cell growth, colony formation (Kelly cells [4]): inhibited the Kelly cell growth in a dose dependent manner | Kelly NB cell growth inhibition (Kelly cells [5]; 72 hours, ATPlite, normalized to DMSO): outperformed positive control A485; also recorded: Cell growth inhibition was observed; also recorded: much higher potency compared to inhibitor alone | IC50 (Kelly cells [5]; ND: not detected): 0.166 µM | toxicity in PK study [6]: No toxicity was observed | Cmax ([6]; mouse, whole blood, n=3): 5 µM | half-life ([6]; mouse, whole blood, n=3): 13 h
